Where two headings read alike, the source gives them in different places. Positions of bridges follow the written chain, without caps; N, C: chain ends. Residues, ends and D or L forms follow the SMILES beside them.
Assay: Phase I clinical trial: plasma pharmacokinetics of the peptide
Assay type: in vivo, human
Conditions: for Dose Proportionality Day 1 AUC(0-tlast)/Dose / Dose Proportionality Day 1 Cmax/Dose / Dose Proportionality Day 7 AUC(0-τ)/Dose / Dose Proportionality Day 7 Cmax/Dose / Tmax / Cmax / half-life / AUC(0-t) / AUC / AUC(0-inf) / Vd/F / CL/F: plasma; for Tmax / Cmax / half-life / AUC(0-t) / AUC / AUC(0-inf) / Vd/F / CL/F: human, sc; for AUC(0-t): read-out: AUC(0-tlast); for AUC: read-out: AUC(0-τ); for Vd/F: read-out: Vz/F
Protocol: A Phase I, single-center, randomized double blind, placebo-controlled, multiple-escalating-dose study in healthy older volunteers was carried out for the peptide [Leu^27]cyclo(Glu^22-Lys^2 1)-hPTH-(1-31)-NH2 (SEQ ID NO: 4). Subjects were healthy males and females (non-reproductive potential), aged 40 to 65 years. […] […] For each dosage level, 2 subjects (I male and I female) received placebo and 6 subjects (3 males and 3 females) received the peptide daily.
Pharmacokinetics. Plasma concentrations of the peptide were analyzed using the WinNonlin 4.0 Noncompartmental module (Pharsight Inc., Mountainview, Calif.) or equivalent. The following pharmacokinetic parameters were computed from the peptide plasma concentration-time data (See FIGS. 4 and 5): • AUC(0-tlast): The area under the plasma concentration versus time curve, from time 0 to the last measurable concentration, as calculated by the linear trapezoidal method (Day 1). • AUC(0-τ): The area under the plasma concentration versus time curve, from time 0 to the last measurable concentration, as calculated by the linear trapezoidal method (Day 7). • AUC(0-∞) or AUCinf: The area under the plasma concentration versus time curve from time 0 to infinity. AUC(0-∞) is calculated as the sum of the AUC(0-tlast) plus the ratio of the last measurable plasma concentration to the elimination rate constant (Clast/kel), where Clast is the predicted concentration at the time of the last measurable concentration, as determined by linear regression, and kel is the apparent first-order elimination rate constant (Day 1). • AUC/AUCinf: The ratio of AUC(0-tlast) to AUC(0-∞). • Cmax: Maximum measured plasma concentration over the time span specified. • Tmax: Time of the maximum measured plasma concentration. If the maximum value occurs at more than one time point, Tmax is defined as the first time point with this value. • kel: Apparent first-order terminal elimination rate constant calculated from a semi-log plot of the plasma concentration versus time curve. This parameter was calculated by linear least squares regression analysis using the maximum number of points in the terminal log-linear phase (e.g. three or more non-zero plasma concentrations). • t1/2: The apparent first-order terminal elimination half-life was calculated as 0.693/kel. • Vz/F: Apparent volume of distribution of a drug following subcutaneous administration, calculated as Dose/( AUC(0-∞)·kel), (Day 1). • CL/F: Apparent total body clearance of a drug following […], calculated as Dose/AUC(0-∞), (Day 1).
Accumulation Index: Calculated as AUC(0-τ) Day 7/AUC(0-tlast) Day 1.

[1] = both sexes, 10 ug, Day 1, 10 μg s.c., geometric mean (CV %)
[2] = both sexes, 10 ug, Day 7, 10 μg s.c. daily, geometric mean (CV %)
[3] = both sexes, 20 ug, Day 1, 20 μg s.c., geometric mean (CV %)
[4] = both sexes, 20 ug, Day 7, 20 μg s.c. daily, geometric mean (CV %)
[5] = both sexes, 40 ug, Day 1, 40 μg s.c., geometric mean (CV %)
[6] = both sexes, 40 ug, Day 7, 40 μg s.c. daily, geometric mean (CV %)
[7] = both sexes, 60 ug, Day 1, 60 μg s.c., arithmetic mean (CV %)
[8] = both sexes, 60 ug, Day 1, 60 μg s.c., geometric mean (CV %)
[9] = both sexes, 60 ug, Day 7, 60 μg s.c. daily, geometric mean (CV %)
[10] = both sexes, 80 ug, Day 1, 80 μg s.c., arithmetic mean (CV %)
[11] = both sexes, 80 ug, Day 1, 80 μg s.c., geometric mean (CV %)
[12] = both sexes, 80 ug, Day 7, 80 μg s.c. daily, geometric mean (CV %)
[13] = both sexes, 20 ug, Day 1, 20 μg s.c., n = 1
[14] = both sexes, 40 ug, Day 1, 40 μg s.c., n = 1

## CC[C@H](C)[C@H](NC(=O)[C@H](CCC(=O)O)NC(=O)[C@H](CO)NC(=O)[C@@H](NC(=O)[C@@H](N)CO)C(C)C)C(=O)N[C@@H](CCC(N)=O)C(=O)N[C@@H](CC(C)C)C(=O)N[C@@H](CCSC)C(=O)N[C@@H](Cc1c[nH]cn1)C(=O)N[C@@H](CC(N)=O)C(=O)N[C@@H](CC(C)C)C(=O)NCC(=O)N[C@@H](CCCCN)C(=O)N[C@@H](Cc1c[nH]cn1)C(=O)N[C@@H](CC(C)C)C(=O)N[C@@H](CC(N)=O)C(=O)N[C@@H](CO)C(=O)N[C@@H](CCSC)C(=O)N[C@@H](CCC(=O)O)C(=O)N[C@@H](CCCN=C(N)N)C(=O)N[C@H](C(=O)N[C@H]1CCC(=O)NCCCC[C@@H](C(=O)N[C@@H](CC(C)C)C(=O)N[C@@H](CC(C)C)C(=O)N[C@@H](CCC(N)=O)C(=O)N[C@@H](CC(=O)O)C(=O)N[C@H](C(N)=O)C(C)C)NC(=O)[C@H](CCCN=C(N)N)NC(=O)[C@H](CC(C)C)NC(=O)[C@H](Cc2c[nH]c3ccccc23)NC1=O)C(C)C [[Leu^27]cyclo(Glu^22-Lys^26)-hPTH-(1-31)-NH2] (H-SVSEIQLMHNLGKHLNSMERVEWLRKLLQDV-NH2; lactam 22-26)
20 μg, 60 μg and 80 μg dose levels
  accumulation: no observed accumulation
Dose Level 10 μg
  Dose Proportionality Day 1 AUC(0-tlast)/Dose: 1.08
  Dose Proportionality Day 1 Cmax/Dose: 2.35
  Dose Proportionality Day 7 AUC(0-τ)/Dose: 2.06
  Dose Proportionality Day 7 Cmax/Dose: 3.13
Dose Level 20 μg
  Dose Proportionality Day 1 AUC(0-tlast)/Dose: 1.10
  Dose Proportionality Day 1 Cmax/Dose: 1.66
  Dose Proportionality Day 7 AUC(0-τ)/Dose: 1.14
  Dose Proportionality Day 7 Cmax/Dose: 1.95
Dose Level 30 μg
  Dose Proportionality Day 1 AUC(0-tlast)/Dose: 3.30
  Dose Proportionality Day 1 Cmax/Dose: 2.92
  Dose Proportionality Day 7 AUC(0-τ)/Dose: 3.58
  Dose Proportionality Day 7 Cmax/Dose: 3.18
Dose Level 40 μg
  Dose Proportionality Day 1 AUC(0-tlast)/Dose: 1.89
  Dose Proportionality Day 1 Cmax/Dose: 2.68
  Dose Proportionality Day 7 AUC(0-τ)/Dose: 2.68
  Dose Proportionality Day 7 Cmax/Dose: 3.19
Dose Level 60 μg
  Dose Proportionality Day 1 AUC(0-tlast)/Dose: 1.61
  Dose Proportionality Day 1 Cmax/Dose: 1.85
  Dose Proportionality Day 7 AUC(0-τ)/Dose: 1.96
  Dose Proportionality Day 7 Cmax/Dose: 2.21
Both sexes, 10 ug, Day 1, 10 μg s.c., arithmetic mean (CV %)
  Tmax: 15 min
[1]
  Cmax: 0.0235 ng/mL
  AUC(0-t): 0.0108 ng·h/mL
Both sexes, 10 ug, Day 7, 10 μg s.c. daily, arithmetic mean (CV %)
  Tmax: 15 min
[2]
  Cmax: 0.0313 ng/mL
  AUC: 0.0206 ng·h/mL
Both sexes, 20 ug, Day 1, 20 μg s.c., arithmetic mean (CV %)
  Tmax: 20 min
[3]
  Cmax: 0.0332 ng/mL
  AUC(0-t): 0.022 ng·h/mL
Both sexes, 20 ug, Day 7, 20 μg s.c. daily, arithmetic mean (CV %)
  Tmax: 25 min
[4]
  Cmax: 0.0391 ng/mL
  AUC: 0.0228 ng·h/mL
Both sexes, 40 ug, Day 1, 40 μg s.c., arithmetic mean (CV %)
  Tmax: 20.3 min
[5]
  Cmax: 0.107 ng/mL
  AUC(0-t): 0.0755 ng·h/mL
Both sexes, 40 ug, Day 7, 40 μg s.c. daily, arithmetic mean (CV %)
  Tmax: 15 min
[6]
  Cmax: 0.128 ng/mL
  AUC: 0.107 ng·h/mL
[7]
  Tmax: 17.6 min
  CL/F: 7770 mL/min
  Vd/F: 477 L
[8]
  Cmax: 0.111 ng/mL
  AUC(0-inf): 0.139 ng·h/mL
  AUC(0-t): 0.0965 ng·h/mL
Both sexes, 60 ug, Day 7, 60 μg s.c. daily, arithmetic mean (CV %)
  Tmax: 15 min
[9]
  Cmax: 0.133 ng/mL
  AUC: 0.118 ng·h/mL
[10]
  Tmax: 24 min
  CL/F: 5230 mL/min
  Vd/F: 361 L
[11]
  Cmax: 0.234 ng/mL
  AUC(0-inf): 0.257 ng·h/mL
  AUC(0-t): 0.264 ng·h/mL
Both sexes, 80 ug, Day 7, 80 μg s.c. daily, arithmetic mean (CV %)
  Tmax: 15.7 min
[12]
  Cmax: 0.254 ng/mL
  AUC: 0.286 ng·h/mL
Both sexes, from 20 μg dose to 80 μg dose, s.c., read-out: mean t1/2 across dose groups
  half-life: 32.8 to 46.7 min
[13]
  AUC(0-inf): 0.092 ng·h/mL
  Vd/F: 171 L
Both sexes, 20 ug, Day 1, 20 μg s.c., n = 1, read-out: t½ (converted)
  half-life: 32.8 min
[14]
  AUC(0-inf): 0.134 ng·h/mL
  Vd/F: 247 L
Both sexes, 40 ug, Day 1, 40 μg s.c., n = 1, read-out: t½ (converted)
  half-life: 34.6 min
Both sexes, 60 ug, Day 1, 60 μg s.c., mean (CV %), read-out: t½ (converted)
  half-life: 41.8 min
Both sexes, 80 ug, Day 1, 80 μg s.c., mean (CV %), read-out: t½ (converted)
  half-life: 46.7 min
20 ug, Day 1, 20 μg s.c., n = 1
  CL/F: 3620 mL/min
40 ug, Day 1, 40 μg s.c., n = 1
  CL/F: 4970 mL/min
Increasing dose from 10 μg to 80 μg
  dose proportionality of AUC(0-∞) (Day 1), AUC(0-τ) (Day 7), Cmax (Day 1) and Cmax (Day 7): dose proportional
once-daily subcutaneous administration for 7 days of 60 μg and 80 μg doses
  pharmacokinetic behavior, comparison AUC(0-τ) Day 7/AUC(0-∞) Day 1: linear
